# From US20180110762A1, “Compositions Methods for Treating Chronic Kidney Disease” (Merck Sharp & Dohme Corp, priority 2015, published 2018)
# pIC50: −log10 of the molar value.
# Tests used:
# [1] = tested on: male obese ZSF1 rats (diabetic nephropathy model); assay: ZSF1 rat study: kidney collagen I and III immunostaining; format: in vivo
# Method: (§1) The effects of Compound A (“A”) on renal function, plasma triglycerides, plasma cholesterol, kidney collagen I, kidney collagen III, renal histology, glomerular filtration rate, fibrosis score, and mRNA gene expression (profibrotic genes and integrin β3) were evaluated in male obese ZSF1 rats (a hybrid F1 of Zucker diabetic fatty rat and spontaneously hypertensive heart failure rat; a diabetic nephropathy model) when administered as in-feed for 28 weeks. Sixty obese male ZSF1 rats were randomized to five groups: Obese control (n=12), Compound A 60 mpk (n=12), Compound A 200 mpk (n=12), Compound A 400 mpk (n=12), Enalapril 10 mpk (n=12); Eight lean male ZSF1 rats were used for normal control. Renal functional changes were monitored by blood and urine analysis following in-feed dosing for 28 weeks. Compound exposure was also monitored during the study.
# Following deparaffinization and rehydration, each kidney tissue section was processed to identify collagen I and III deposition. The primary antibodies used were rabbit anti-type I collagen polyclonal antibody (Abcam, Cambridge, Mass.) diluted at 2 ug/ml, and rabbit anti-type III collagen polyclonal antibody (Lifespan, Seattle, Wash.) at 3 ug/ml. The signal was developed by using Super PicTure HRP Polymer Rabbit Primary kit (Invitrogen) and the slides were counterstained with hematoxylin. The Aperio ScanScope XT Slide Scanner (Aperio Technologies, Vista, Calif.) system was used to capture whole slide digital images with a 20× objective. Digital images were managed using Aperio Spectrum. The positive stains were identified and quantified using a macro created from a color deconvolution algorithm (Aperio Technologies, Vista, Calif.).
# [2] = tested on: male obese ZSF1 rats (diabetic nephropathy model); assay: ZSF1 rat study: renal fibrosis score (histology); format: in vivo; conditions: for renal fibrosis score (expressed as 0-5): obese ZSF1 rats, week 28
# Method: as §1
# Upon completion of the study, animals were euthanized and blood and organs (kidney, heart, aorta, eyes, and lumber vertebrae (LV1-LV5) and left femur) were collected for histology assessment (including EM for the kidneys) or DEXA scan (lumber vertebrae and left femur). Kidney tissues were fixed in 10% formalin and then paraffin embedded. Tissue sections were stained with hematoxylin and eosin (H&E), periodic acid-Schiff (PAS), and Masson's trichrome and evaluated under light microscope. The severity of histopathologic changes in renal tubules, interstitium, vasculature, and glomeruli were graded on a 1 to 5 scale corresponding to minimal, mild, moderate, marked, and severe as described previously. Sections from both kidneys were examined. Collagen deposition in the kidney was graded on a 1 to 5 scale corresponding to minimal, mild, moderate, marked, and severe, based on the blue stained area size and intensity.
# [3] = target: T1, Human recombinant integrin αvβ3 (Homo sapiens, UniProt P05106+P06756); assay: Solid phase receptor assay, αvβ3 (vitronectin); format: binding
# T1 construct: purchased R&D Systems
# T1 sequence (P06756 31-992 limits assumed): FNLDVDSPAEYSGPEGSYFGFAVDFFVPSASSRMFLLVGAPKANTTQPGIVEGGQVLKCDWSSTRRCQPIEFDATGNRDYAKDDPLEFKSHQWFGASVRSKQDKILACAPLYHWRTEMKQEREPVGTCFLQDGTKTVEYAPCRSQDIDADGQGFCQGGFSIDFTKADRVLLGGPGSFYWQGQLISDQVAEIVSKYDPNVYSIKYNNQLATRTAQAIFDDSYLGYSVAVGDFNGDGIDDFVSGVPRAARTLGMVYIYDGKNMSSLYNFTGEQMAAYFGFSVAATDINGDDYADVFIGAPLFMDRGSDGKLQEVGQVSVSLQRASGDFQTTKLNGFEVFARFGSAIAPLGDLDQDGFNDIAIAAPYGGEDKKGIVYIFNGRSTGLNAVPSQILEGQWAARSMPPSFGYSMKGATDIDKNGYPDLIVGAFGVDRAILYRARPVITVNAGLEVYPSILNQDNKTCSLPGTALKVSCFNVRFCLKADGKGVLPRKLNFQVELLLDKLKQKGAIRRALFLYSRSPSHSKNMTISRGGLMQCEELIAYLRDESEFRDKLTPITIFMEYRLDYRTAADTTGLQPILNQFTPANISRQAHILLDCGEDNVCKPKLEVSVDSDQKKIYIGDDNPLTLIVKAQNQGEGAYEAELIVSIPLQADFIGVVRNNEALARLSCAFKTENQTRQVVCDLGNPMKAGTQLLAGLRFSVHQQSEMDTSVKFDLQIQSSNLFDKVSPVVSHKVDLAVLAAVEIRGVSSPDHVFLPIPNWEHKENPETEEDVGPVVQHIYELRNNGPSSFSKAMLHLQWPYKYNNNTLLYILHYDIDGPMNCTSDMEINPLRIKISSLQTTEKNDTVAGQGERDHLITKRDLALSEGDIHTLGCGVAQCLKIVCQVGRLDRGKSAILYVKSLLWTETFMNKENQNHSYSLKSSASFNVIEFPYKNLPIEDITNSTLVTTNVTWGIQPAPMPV
# T1 sequence (P05106 27-718 limits assumed): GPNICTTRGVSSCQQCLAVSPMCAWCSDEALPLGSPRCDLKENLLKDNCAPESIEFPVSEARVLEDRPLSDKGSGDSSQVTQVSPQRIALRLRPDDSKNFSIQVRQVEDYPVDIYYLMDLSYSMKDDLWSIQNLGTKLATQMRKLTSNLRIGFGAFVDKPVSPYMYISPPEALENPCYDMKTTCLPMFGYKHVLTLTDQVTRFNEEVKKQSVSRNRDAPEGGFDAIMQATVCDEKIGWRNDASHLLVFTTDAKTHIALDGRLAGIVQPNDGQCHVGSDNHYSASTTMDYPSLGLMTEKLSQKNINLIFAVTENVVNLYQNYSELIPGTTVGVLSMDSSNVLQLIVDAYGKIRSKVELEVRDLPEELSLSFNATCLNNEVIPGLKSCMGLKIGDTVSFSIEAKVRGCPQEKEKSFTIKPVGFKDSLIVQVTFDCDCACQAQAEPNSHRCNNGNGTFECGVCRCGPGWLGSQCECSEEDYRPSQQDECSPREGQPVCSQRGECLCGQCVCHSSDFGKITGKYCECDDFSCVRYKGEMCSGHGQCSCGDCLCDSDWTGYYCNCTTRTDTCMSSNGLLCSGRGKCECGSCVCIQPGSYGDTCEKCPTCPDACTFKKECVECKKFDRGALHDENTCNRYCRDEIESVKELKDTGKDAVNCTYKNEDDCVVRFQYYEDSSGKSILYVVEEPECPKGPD
# Method: The assay was performed according to the method described in International Patent Publication WO 2014/015054 A1 “Beta Amino Acid Derivatives As Integrin Antagonists.” Briefly, 96-well plates were coated overnight with purified fibronectin or vitronectin (R&D Systems) in TBS+ buffer (25 mM Tris 7.4, 137 mM NaCl, 2.7 mM KCl, 1 mM CaCl2, 1 mM MgCl2, 1 mM MnCl2). Compound A was added at different concentrations to recombinant human integrin proteins (R&D Systems) reconstituted in TBS+/0.1% bovine serum albumin, and 50 μL of this mixture were added to the empty wells of the coated plate and incubated for 1-2 hours. After 3 washes, 50 μL of biotinylated antibody (R&D Systems) in TBS+/0.1% bovine serum albumin were added. The procedure continued with three more washes, addition of 50 μL of streptavidin-conjugated horseradish peroxidase (R&D Systems), and incubation for 20 minutes. After 3 more washes, 50 μL of tetramethylbenzidine (TMB) substrate (SIGMA) were added and plates were read after 20 min by colorimetric detection at 650 nm wavelength in an EnVision Multilabel Plate Reader (Perkin Elmer). The concentrations of fibronectin used were: 2 μg/mL for the α5β1 assay and 5 μg/mL for the αvβ1 assay. The concentrations of vitronectin used were: 1 μg/mL for the αvβ3 assay and 0.25 μg/mL for the αvβ5 assay. […]
# [4] = tested on: male obese ZSF1 rats (diabetic nephropathy model); assay: ZSF1 rat study: kidney mRNA expression of profibrotic genes and integrin beta3; format: in vivo; conditions: for Collagen I (a1) expression in the kidney / Collagen III (a1) expression in the kidney / Integrin beta3 expression in the kidney / PAI-1 expression in the kidney: obese ZSF1 rats, week 28
# Method: as §1
# [5] = target: T1, Human recombinant integrin αvβ3; assay: Thermal shift assay (differential scanning fluorimetry), αvβ3; format: binding; conditions: αvβ3, 20 μM Compound A
# Method: Differential scanning fluorimetry was performed on a LightCycler 480 II, real-time PCR instrument (Roche Diagnostics). Human recombinant integrins from R&D Systems (αvβ1, αvβ3 and α5β1) were reconstituted at a concentration of […] in assay buffer (20 mM HEPES, pH=7.3, 100 mM NaCl, 1 mM MgCl2, 1 mM MnCl2) and diluted in assay buffer with Sypro orange (SIGMA) to a final concentration of 400 nM integrin and 5× Sypro orange. A volume of 4.9 μL of this mixture of protein and dye was transferred to a 384-well plate and 100 nL of DMSO or Compound A, dissolved in DMSO, were added using an Echo 555 instrument (Labcyte). The final concentration of Compound A in the assay was 20 μM. After mixing, the assay plate was sealed, spun at 1,000×g for two minutes, and subsequently heated from 25 to 99° C. over the course of 31 min in the LightCycler 480 II instrument. Fluorescence intensity was measured using excitation/emission wavelengths of 465 and 580 nm, respectively. Changes in protein thermal stability (ΔTm) upon compound binding were analyzed by using LightCycler 480 (software provided by the manufacturer).
# postmenopausal women = conditions: Phase II study; cited from earlier work
# [6] = obese ZSF1 rats, 400 mpk in-feed, week 28
structure (smiles),measurement,setting,value
"COc1ccc([C@H](CC(=O)O)N2CCN(CCCc3ccc4c(n3)NCCC4)C2=O)cn1 [Compound A, 3-{2-Oxo-3-[3-(5,6,7,8-tetrahydro-[1,8]naphthyridin-2-yl)-propyl]imidazolidin-1-yl}-3 (S)-(6-methoxy-pyridin-3-yl)-propionic acid]",effect on kidney collagen I protein levels vs Obese Vehicle,[1]; 400 mpk at week 28,significantly decreased
same,effect on kidney collagen III protein levels vs Obese Vehicle,[1]; 400 mpk at week 28,significantly decreased
same,kidney collagen I protein levels,"[1]; obese ZSF1 rats, 200 mpk in-feed, week 28",39.79 ± 0.82 % of area
same,kidney collagen I protein levels,[1]; [6],36.45 ± 0.85 % of area
same,kidney collagen III protein levels,[1]; [6],19.23 ± 0.76 % of area
same,effect on renal fibrosis score vs Obese Vehicle,[2]; 400 mpk at week 28,significantly decreased
same,markers of renal fibrosis,[2]; ZSF-1 rats vs untreated obese ZSF-1 rats (summary),improvement in markers of renal fibrosis
same,renal fibrosis score (expressed as 0-5),[2]; 200 mpk in-feed,2.7 ± 0.1
same,renal fibrosis score (expressed as 0-5),[2]; 400 mpk in-feed,2.2 ± 0.1
same,pIC50,"[3]; αvβ3, first of two experiments",8.28
same,pIC50,"[3]; αvβ3, second of two experiments",9.48
same,effect on expression of key profibrotic genes and integrin beta3 in the kidney vs obese vehicle,[4]; 200 mpk or 400 mpk at week 28,significantly decreased
same,Collagen I (a1) expression in the kidney,[4]; 200 mpk in-feed,0.79 ± 0.04
same,Collagen III (a1) expression in the kidney,[4]; 200 mpk in-feed,0.60 ± 0.03
same,Integrin beta3 expression in the kidney,[4]; 200 mpk in-feed,0.83 ± 0.03
same,PAI-1 expression in the kidney,[4]; 200 mpk in-feed,0.80 ± 0.03
same,Collagen I (a1) expression in the kidney,[4]; 400 mpk in-feed,0.66 ± 0.02
same,Collagen III (a1) expression in the kidney,[4]; 400 mpk in-feed,0.52 ± 0.01
same,Integrin beta3 expression in the kidney,[4]; 400 mpk in-feed,0.74 ± 0.03
same,PAI-1 expression in the kidney,[4]; 400 mpk in-feed,0.66 ± 0.03
same,ΔTm at 20 µM,[5]; first of two experiments,21.5 °C
same,ΔTm at 20 µM,[5]; second of two experiments,16.4 °C
same,bone density,postmenopausal women,increase bone density
